Data on three compounds can be found in paper PMC7366380, “Discovery of a Potent and Selective Covalent Inhibitor and Activity-Based Probe for the Deubiquitylating Enzyme UCHL1, with Antifibrotic Activity” (Journal of the American Chemical Society, 2020).

For one series, the target named is T1, UCHL1 (Homo sapiens, UniProt P09936).
T1 sequence (P09936 1-223): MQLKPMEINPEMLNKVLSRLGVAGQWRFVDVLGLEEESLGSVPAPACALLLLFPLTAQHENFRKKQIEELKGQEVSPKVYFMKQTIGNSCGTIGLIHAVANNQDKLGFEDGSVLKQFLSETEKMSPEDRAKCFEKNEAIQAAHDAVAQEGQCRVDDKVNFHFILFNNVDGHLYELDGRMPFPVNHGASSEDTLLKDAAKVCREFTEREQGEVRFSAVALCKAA
Description: UCHL1 inhibitor kinetic analysis (Ub-AMC fluorescence intensity). In kind it is biochemical. Details: rapidly targets endogenous UCHL1 in cells; endogenous in cells; host or cells: HEK293. The settings on record: UCHL1 3 nM, Ub-AMC 130 nM; read-out: kobs/I.

The nature of series [1]: ABP 2 stability in cell culture medium (in-gel fluorescence readout). The following applies: DMEM medium, 37 °C, then 1 h on HEK293 cells.
The target in the next series is EIF3H (Homo sapiens, UniProt O15372). Description: Quantitative chemical proteomic profiling of ABP 2 in HEK293 cells: EIF3H. The settings on record: for Log2 reporter intensity values (Log2FC, DMSO substract): EIF3H, listed as ABP 2.
Series [2] deals with T2, DUBs and other proteins in HEK293 cells (Homo sapiens, UniProt P45974).
T2 sequence (P45974 1-858): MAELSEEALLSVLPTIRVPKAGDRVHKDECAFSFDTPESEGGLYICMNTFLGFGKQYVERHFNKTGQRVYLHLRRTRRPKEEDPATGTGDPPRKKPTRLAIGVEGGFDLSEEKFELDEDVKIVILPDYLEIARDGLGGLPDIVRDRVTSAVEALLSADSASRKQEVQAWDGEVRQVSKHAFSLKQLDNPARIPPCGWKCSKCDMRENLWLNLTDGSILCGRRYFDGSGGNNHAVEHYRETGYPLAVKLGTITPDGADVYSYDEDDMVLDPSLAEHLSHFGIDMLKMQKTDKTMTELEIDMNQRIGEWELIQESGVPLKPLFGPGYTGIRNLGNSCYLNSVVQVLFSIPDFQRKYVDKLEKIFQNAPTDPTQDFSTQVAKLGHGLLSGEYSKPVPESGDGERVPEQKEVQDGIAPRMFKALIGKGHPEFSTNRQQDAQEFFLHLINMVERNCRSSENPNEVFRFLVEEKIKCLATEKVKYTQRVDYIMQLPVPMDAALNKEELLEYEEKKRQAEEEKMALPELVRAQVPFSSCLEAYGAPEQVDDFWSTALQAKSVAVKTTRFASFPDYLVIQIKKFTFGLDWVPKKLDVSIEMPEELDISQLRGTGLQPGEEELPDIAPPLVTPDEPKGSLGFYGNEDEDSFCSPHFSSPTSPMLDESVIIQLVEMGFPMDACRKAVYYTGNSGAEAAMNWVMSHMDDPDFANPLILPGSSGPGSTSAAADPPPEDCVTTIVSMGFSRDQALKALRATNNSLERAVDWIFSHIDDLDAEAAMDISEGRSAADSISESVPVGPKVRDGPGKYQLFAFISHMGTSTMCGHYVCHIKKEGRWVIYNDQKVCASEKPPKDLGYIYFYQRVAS
Description: Quantitative chemical proteomic profiling of ABP 2 in HEK293 cells: other DUBs and proteins across the proteome. The following applies: USP5, listed as ABP 2.

The target in series [3] is DUBs and other proteins in HEK293 cells (Homo sapiens, UniProt Q7L5N1). Described as above. The following applies: COPS6, listed as ABP 2.
Series [4] addresses DUBs and other proteins in HEK293 cells (Homo sapiens, UniProt Q93008). Described as above. The following applies: USP9X, listed as ABP 2.
Series [5] deals with DUBs and other proteins in HEK293 cells (Homo sapiens, UniProt Q93009). The series is described as above. The settings on record: USP7, listed as ABP 2.
For series [6], the target named is DUBs and other proteins in HEK293 cells (Homo sapiens, UniProt Q96FW1). The series is described as above. The following applies: OTUB1, listed as ABP 2.
Series [7] concerns primary human bronchial fibroblasts from IPF patients.
The mark [8] stands for this setting: 200 nM, 180 min, replicates A,C.

“And” between values parts separate entries of the source, which are not always exact repeats. Identical values can stand only once.

Sequence of DUBs and other proteins in HEK293 cells (Homo sapiens, UniProt Q93008) (Q93008 whole entry): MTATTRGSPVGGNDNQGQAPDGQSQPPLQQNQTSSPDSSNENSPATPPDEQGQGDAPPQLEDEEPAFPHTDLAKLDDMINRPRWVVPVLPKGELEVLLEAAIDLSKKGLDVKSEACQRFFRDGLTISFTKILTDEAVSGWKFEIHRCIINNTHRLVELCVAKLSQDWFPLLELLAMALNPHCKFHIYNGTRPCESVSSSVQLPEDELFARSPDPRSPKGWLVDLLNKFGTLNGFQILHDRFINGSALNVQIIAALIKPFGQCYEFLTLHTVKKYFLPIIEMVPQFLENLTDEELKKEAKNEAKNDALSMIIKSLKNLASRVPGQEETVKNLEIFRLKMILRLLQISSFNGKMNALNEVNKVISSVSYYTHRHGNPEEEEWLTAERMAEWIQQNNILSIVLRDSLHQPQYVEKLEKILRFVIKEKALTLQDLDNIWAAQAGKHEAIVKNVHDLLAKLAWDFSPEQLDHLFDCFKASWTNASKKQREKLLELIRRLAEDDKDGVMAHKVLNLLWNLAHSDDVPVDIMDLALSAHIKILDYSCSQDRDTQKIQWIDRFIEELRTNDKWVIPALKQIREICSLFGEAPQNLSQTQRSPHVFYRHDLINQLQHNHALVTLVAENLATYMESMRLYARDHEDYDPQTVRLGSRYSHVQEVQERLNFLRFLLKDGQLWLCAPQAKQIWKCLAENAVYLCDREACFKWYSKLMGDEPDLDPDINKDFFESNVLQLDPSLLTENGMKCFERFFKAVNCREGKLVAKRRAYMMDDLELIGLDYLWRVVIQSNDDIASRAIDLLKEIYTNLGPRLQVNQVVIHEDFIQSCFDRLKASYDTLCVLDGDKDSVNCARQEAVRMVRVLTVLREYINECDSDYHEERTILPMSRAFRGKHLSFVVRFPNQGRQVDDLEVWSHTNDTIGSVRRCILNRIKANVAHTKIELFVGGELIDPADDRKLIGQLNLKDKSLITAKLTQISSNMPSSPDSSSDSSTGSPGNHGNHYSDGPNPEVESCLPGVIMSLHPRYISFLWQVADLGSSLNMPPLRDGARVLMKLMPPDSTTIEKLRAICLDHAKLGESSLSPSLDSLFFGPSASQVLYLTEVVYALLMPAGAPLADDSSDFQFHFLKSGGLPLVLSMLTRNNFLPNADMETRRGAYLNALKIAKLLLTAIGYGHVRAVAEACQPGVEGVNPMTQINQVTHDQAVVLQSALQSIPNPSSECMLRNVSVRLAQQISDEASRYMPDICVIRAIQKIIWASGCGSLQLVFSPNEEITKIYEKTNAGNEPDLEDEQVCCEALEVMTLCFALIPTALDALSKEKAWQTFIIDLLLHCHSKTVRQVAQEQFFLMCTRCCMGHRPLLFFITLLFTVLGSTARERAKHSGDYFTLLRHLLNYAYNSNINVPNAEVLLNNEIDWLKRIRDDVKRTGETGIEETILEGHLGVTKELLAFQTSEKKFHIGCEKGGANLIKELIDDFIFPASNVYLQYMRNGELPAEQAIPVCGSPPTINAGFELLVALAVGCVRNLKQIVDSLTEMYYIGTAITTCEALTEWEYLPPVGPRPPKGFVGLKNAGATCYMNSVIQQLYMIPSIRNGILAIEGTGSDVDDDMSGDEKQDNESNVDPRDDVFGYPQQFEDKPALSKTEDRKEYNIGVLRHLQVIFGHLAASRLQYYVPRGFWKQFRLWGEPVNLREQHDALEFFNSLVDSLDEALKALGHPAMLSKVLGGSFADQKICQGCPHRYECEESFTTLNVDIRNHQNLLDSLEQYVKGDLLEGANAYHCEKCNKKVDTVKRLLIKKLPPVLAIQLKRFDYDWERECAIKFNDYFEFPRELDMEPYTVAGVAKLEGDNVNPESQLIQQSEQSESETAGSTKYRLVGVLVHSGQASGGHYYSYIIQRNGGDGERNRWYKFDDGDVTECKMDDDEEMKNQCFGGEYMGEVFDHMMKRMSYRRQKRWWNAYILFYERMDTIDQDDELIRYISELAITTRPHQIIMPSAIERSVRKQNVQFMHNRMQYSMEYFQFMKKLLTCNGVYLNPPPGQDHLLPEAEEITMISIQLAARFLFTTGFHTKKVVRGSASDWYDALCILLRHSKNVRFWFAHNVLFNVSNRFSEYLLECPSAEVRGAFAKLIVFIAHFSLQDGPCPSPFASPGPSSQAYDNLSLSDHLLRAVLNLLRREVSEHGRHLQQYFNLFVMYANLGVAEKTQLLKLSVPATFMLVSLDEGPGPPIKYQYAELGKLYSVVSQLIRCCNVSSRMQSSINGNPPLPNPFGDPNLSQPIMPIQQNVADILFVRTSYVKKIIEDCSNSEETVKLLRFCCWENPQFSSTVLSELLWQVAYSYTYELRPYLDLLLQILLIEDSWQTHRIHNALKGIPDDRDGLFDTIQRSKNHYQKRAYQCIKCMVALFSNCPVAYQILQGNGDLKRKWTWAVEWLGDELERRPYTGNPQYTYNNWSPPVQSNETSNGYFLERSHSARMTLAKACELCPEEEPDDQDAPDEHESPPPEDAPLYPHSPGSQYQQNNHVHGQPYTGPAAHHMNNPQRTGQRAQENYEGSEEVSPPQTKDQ
Sequence of DUBs and other proteins in HEK293 cells (Homo sapiens, UniProt Q93009) (Q93009 whole entry): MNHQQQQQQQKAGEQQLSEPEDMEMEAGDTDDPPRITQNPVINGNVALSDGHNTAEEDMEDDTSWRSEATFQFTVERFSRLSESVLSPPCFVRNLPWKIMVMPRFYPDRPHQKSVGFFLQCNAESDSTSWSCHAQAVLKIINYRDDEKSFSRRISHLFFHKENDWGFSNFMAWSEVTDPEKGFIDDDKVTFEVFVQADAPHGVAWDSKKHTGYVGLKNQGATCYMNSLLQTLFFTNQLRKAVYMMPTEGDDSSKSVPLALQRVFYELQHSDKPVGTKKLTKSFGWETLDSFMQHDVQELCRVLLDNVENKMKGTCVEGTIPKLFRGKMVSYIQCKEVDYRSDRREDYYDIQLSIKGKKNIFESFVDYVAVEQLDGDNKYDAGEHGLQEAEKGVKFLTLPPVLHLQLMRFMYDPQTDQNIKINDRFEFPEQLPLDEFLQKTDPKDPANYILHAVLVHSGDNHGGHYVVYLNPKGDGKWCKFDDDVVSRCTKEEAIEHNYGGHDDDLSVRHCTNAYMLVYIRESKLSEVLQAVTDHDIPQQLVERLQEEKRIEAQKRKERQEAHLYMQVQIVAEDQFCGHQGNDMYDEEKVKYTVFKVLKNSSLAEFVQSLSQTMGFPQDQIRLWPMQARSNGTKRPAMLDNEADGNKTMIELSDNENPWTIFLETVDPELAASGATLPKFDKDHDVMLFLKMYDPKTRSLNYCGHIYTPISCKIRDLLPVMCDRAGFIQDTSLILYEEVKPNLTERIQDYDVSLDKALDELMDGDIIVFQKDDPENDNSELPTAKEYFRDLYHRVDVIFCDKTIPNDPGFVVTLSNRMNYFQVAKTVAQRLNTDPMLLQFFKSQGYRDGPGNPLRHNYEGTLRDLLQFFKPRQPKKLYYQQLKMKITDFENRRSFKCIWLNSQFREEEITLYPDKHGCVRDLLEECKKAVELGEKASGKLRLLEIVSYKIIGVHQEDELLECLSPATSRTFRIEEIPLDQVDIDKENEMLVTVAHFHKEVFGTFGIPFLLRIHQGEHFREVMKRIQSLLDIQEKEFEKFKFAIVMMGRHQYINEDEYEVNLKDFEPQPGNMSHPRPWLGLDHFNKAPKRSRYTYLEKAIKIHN
Sequence of DUBs and other proteins in HEK293 cells (Homo sapiens, UniProt Q96FW1) (Q96FW1 whole entry): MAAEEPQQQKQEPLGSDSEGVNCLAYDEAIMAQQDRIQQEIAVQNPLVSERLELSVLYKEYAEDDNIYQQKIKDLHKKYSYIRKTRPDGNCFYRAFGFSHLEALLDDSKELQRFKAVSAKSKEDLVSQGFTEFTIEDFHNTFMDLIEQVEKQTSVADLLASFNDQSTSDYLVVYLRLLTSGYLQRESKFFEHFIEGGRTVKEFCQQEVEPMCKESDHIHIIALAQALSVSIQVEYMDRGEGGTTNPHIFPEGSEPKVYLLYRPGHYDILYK
Sequence of DUBs and other proteins in HEK293 cells (Homo sapiens, UniProt Q7L5N1) (Q7L5N1 whole entry): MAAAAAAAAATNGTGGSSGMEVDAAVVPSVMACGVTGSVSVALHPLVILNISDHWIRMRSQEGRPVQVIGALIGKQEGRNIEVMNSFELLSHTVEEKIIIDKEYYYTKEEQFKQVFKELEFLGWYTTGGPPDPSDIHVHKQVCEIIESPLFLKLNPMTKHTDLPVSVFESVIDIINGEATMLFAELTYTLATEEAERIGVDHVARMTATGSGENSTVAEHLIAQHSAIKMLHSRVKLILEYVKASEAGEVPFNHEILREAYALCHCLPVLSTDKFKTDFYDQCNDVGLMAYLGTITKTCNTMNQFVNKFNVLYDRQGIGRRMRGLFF

On to `N#CN1CCC[C@H]1C(=O)N1CCc2c(-c3c[nH]c4ncccc34)cccc21` [Compound 1], for which, at UCHL1, the kinact/KI was found to be 7400 M⁻¹ s⁻¹.

For the compound `C#Cc1cnc2[nH]cc(-c3cccc4c3CCN4C(=O)[C@@H]3CCCN3C#N)c2c1` [Compound 2], in series [1], the “stability in media without loss of activity” value is recorded as greater than 72 h. The “Log2 reporter intensity values (Log2FC, DMSO substract)” value (shortened to “Log2 reporter intensity values”) at EIF3H (2 nM, 60 min, replicates A-C) is 0.03927 and 0.1861 and 0.1127; on EIF3H (20 nM, 10 min, replicates B,C) it was 0.003189 and 0.05275; at EIF3H (20 nM, 60 min, replicates A-C), 0.08479 and -0.05372 and 0.1466; at EIF3H (20 nM, 180 min, replicates A-C) it was -0.0501 and -0.006928 and -0.004662; at EIF3H (200 nM, 10 min, replicates B,C), 0.1905 and -0.004432; at EIF3H (200 nM, 60 min, replicates A-C), 0.08499 and -0.02572 and 0.1313. Also, the “Log2 reporter intensity values” value is -0.03275 and 0.07608 at EIF3H (setting [8]); -0.1407 and 0.0289 and 0.1099 in series [2] (2 nM, 60 min, replicates A-C); 0.1281 in [2] (20 nM, 10 min, replicates B,C); 0.06053 and 0.195 and 0.2148 in [2] (20 nM, 60 min, replicates A-C); 0.2725 and 0.06742 and 0.2092 in series [2] (20 nM, 180 min, replicates A-C); 0.2092 and 0.2483 in series [2] (200 nM, 10 min, replicates B,C). Besides, the “Log2 reporter intensity values” value is 0.08791 and 0.2394 in [2] (200 nM, 60 min, replicates A-C); 0.2625 and 0.2347 in series [2] (setting [8]); -0.04023 and 0.308 in series [3] (2 nM, 60 min, replicates A-C); -0.278 and 0.05496 in series [3] (20 nM, 10 min, replicates B,C); -0.132 and -0.1593 and 0.09464 in [3] (20 nM, 60 min, replicates A-C); -0.02381 and 0.4095 and -0.1139 in series [3] (20 nM, 180 min, replicates A-C). In addition, the “Log2 reporter intensity values” value in series [3] (200 nM, 10 min, replicates B,C) is 0.1379 and -0.08033; in series [3] (200 nM, 60 min, replicates A-C), 0.1575 and 0.03437 and 0.12; in series [3] (setting [8]), 0.2559 and 0.1548; in series [4] (2 nM, 60 min, replicates A-C), 0.06074 and 0.05768 and -0.1222; in series [4] (20 nM, 10 min, replicates B,C), 0.0266 and 0.08583; in series [4] (20 nM, 60 min, replicates A-C), -0.07107 and -0.1083 and 0.02034. Besides, the “Log2 reporter intensity values” value in series [4] (20 nM, 180 min, replicates A-C) is -0.3167 and 0.0151 and 0.03374; in series [4] (200 nM, 10 min, replicates B,C), 0.03305 and -0.1026; in series [4] (200 nM, 60 min, replicates A-C), 0.09885 and 0.2045 and -0.1344; in [4] (setting [8]) it was 0.109 and 0.1534; in [5] (2 nM, 60 min, replicates A-C), 0.06357 and 0.017 and -0.3747; in series [5] (20 nM, 10 min, replicates B,C) it was -0.07969 and -0.2354. Besides, the “Log2 reporter intensity values” value is 0.02327 and -0.09058 and -0.2812 in series [5] (20 nM, 60 min, replicates A-C); -0.1814 and -0.1595 and -0.1999 in series [5] (20 nM, 180 min, replicates A-C); 0.1137 in series [5] (200 nM, 10 min, replicates B,C); -0.04347 and 0.1524 and 0.1409 in series [5] (200 nM, 60 min, replicates A-C); -0.01106 and 0.3029 in series [5] (setting [8]); 0.1769 and 0.1167 and 0.05908 in [6] (2 nM, 60 min, replicates A-C). The “Log2 reporter intensity values” value in [6] (20 nM, 10 min, replicates B,C) was 0.07104; in series [6] (20 nM, 60 min, replicates A-C), 0.004019; in series [6] (20 nM, 180 min, replicates A-C) it was -0.1034 and 0.07381 and 0.1015; in series [6] (200 nM, 10 min, replicates B,C), 0.1233 and 0.1033; in series [6] (200 nM, 60 min, replicates A-C), 0.176 and 0.4057 and 0.2275; in [6] (setting [8]), 0.3761 and 0.4198. Further, the “Log2 t-test Difference, EIF3H, 2 nM” value at EIF3H (HEK293, 2 nM vs DMSO, 1 h, enrichment, TMT, n=3) came to 0.1127. In addition, the “Log2 t-test Difference, EIF3H, 20 nM” value at EIF3H (HEK293, 20 nM vs DMSO, 1 h, enrichment, TMT, n=3) amounted to 0.05921. Also, on EIF3H (HEK293, 200 nM vs DMSO, 1 h, enrichment, TMT, n=3), the “Log2 t-test Difference, EIF3H, 200 nM” value is 0.06352.

For `CC(=O)O/N=C1\C(=O)N(Cc2cc(Cl)ccc2Cl)c2ccc(Cl)cc21` [LDN-57444, reference compound], the “cytotoxicity (in words)” value in series [7] was “increased cytotoxicity”.
